Experimental findings from paper PMC10660663 are described below.

The nature of data set [1]: SuFEx S-O bond formation: di-sulfonimidoyl fluoride (mixture of diastereomers) + diphenol (1:1), DBU 2.1 equiv, [1+1] macrocyclisation, one pot. To be noted: the molecule shown is the open-chain precursor, MeCN, 20.0 mM, 50.0 °C.
Data set [2] is described as follows: Enantiospecific SuFEx S-O bond formation: enantiopure di-sulfonimidoyl fluoride + sodium diphenolate (1:1), [1+1] macrocyclisation, one pot. To be noted: the molecule shown is the open-chain precursor, MeCN, 12.5 mM, 60.0 °C, 6.0 h.

On to `Cc1ccc(S(=O)(F)=NC(=O)c2ccc(C(=O)N=S(=O)(Oc3ccc(OCCCCCCCCOc4ccc(O)cc4)cc3)c3ccc(C)cc3)cc2)cc1` (stereo not drawn) [3h], for which the ring closure, isolated yield in data set [1] (30-membered ring, 3.0 h) amounted to 62%.

In the case of `CCC(c1ccc(O)cc1)C(CC)c1ccc(OS(=O)(=NC(=O)c2ccc(Oc3ccc(C(=O)N=S(=O)(F)c4ccc(C)cc4)cc3)cc2)c2ccc(C)cc2)cc1` (stereo not drawn) [3j], in data set [1] (27-membered ring, 3.0 h), the ring closure, isolated yield was determined as 88%.

Turning to `Cc1ccc([S@](=O)(F)=NC(=O)c2ccc(-c3ccc(C(=O)N=[S@](=O)(Oc4ccc(C(C)(C)c5cccc(C(C)(C)c6ccc([O-])cc6)c5)cc4)c4ccc(C)cc4)cc3)cc2)cc1` [(R,R)-3y], the ring closure, isolated yield in data set [2] (29-membered ring) turned out to be 27%.

Consider `Cc1ccc([S@](=O)(F)=NC(=O)c2ccc(C(=O)N=[S@](=O)(Oc3ccc(Cc4ccc([O-])cc4)cc3)c3ccc(C)cc3)cc2)cc1` [(R,R)-3u], for which, in data set [2] (21-membered ring), the ring closure, isolated yield stood at 42%.

Regarding `Cc1ccc([S@@](=O)(F)=NC(=O)c2ccc(-c3ccc(C(=O)N=[S@@](=O)(Oc4ccc(C(C)(C)c5ccc([O-])cc5)cc4)c4ccc(C)cc4)cc3)cc2)cc1` [[1+1] of 4i (not observed)], the ring closure, isolated yield in data set [2] (25-membered ring) turned out to be 0%.

Regarding `Cc1ccc([S@@](=O)(F)=NC(=O)c2ccc(-c3ccc(C(=O)N=[S@@](=O)(Oc4ccc(C(c5ccc([O-])cc5)(C(F)(F)F)C(F)(F)F)cc4)c4ccc(C)cc4)cc3)cc2)cc1` [[1+1] of 4j (not observed)], the ring closure, isolated yield in data set [2] (25-membered ring) was 0%.

For `Cc1ccc(S(=O)(F)=NC(=O)c2ccc(Oc3ccc(C(=O)N=S(=O)(Oc4ccc(OCCCCOc5ccc(O)cc5)cc4)c4ccc(C)cc4)cc3)cc2)cc1` (stereo not drawn) [3m], in data set [1] (31-membered ring, 3.0 h), the ring closure, isolated yield worked out at 78%.

As for `Cc1ccc(S(=O)(F)=NC(=O)c2ccc(C(=O)N=S(=O)(Oc3cccc(Oc4cccc(Oc5cccc(O)c5)c4)c3)c3ccc(C)cc3)cc2)cc1` (stereo not drawn) [3d], the ring closure, isolated yield in data set [1] (23-membered ring, 3.0 h) was determined as 67%.

Take `Cc1ccc([S@@](=O)(F)=NC(=O)c2ccc(-c3ccc(C(=O)N=[S@@](=O)(Oc4ccc(C(C)(C)c5cccc(C(C)(C)c6ccc([O-])cc6)c5)cc4)c4ccc(C)cc4)cc3)cc2)cc1` [(S,S)-3y]: in data set [2] (29-membered ring), the ring closure, isolated yield was found to be 37%.

As to `Cc1ccc([S@@](=O)(F)=NC(=O)c2ccc(Oc3ccc(C(=O)N=[S@@](=O)(Oc4ccc(C(c5ccc([O-])cc5)(C(F)(F)F)C(F)(F)F)cc4)c4ccc(C)cc4)cc3)cc2)cc1` [(S,S)-3Ad], in data set [2] (26-membered ring), the ring closure, isolated yield amounted to 20%.

As for `Cc1ccc(S(=O)(F)=NC(=O)c2ccc(C(=O)N=S(=O)(Oc3ccc(SSc4ccc(O)cc4)cc3)c3ccc(C)cc3)cc2)cc1` (stereo not drawn) [3a], the ring closure, isolated yield in data set [1] (22-membered ring, 3.0 h) turned out to be 96%.

Regarding `Cc1ccc([S@](=O)(F)=NC(=O)c2ccc(C(=O)N=[S@](=O)(Oc3ccc(C(C)(C)c4ccc([O-])cc4)cc3)c3ccc(C)cc3)cc2)cc1` [(R,R)-3w], the ring closure, isolated yield in data set [2] (21-membered ring) is 54%.

With `Cc1ccc([S@@](=O)(F)=NC(=O)c2ccc(Oc3ccc(C(=O)N=[S@@](=O)(Oc4ccc(Oc5ccc([O-])cc5)cc4)c4ccc(C)cc4)cc3)cc2)cc1` [(S,S)-3Ab], the ring closure, isolated yield in data set [2] (26-membered ring) is 14%.

As for `Cc1ccc(S(=O)(F)=NC(=O)c2ccc(C(=O)N=S(=O)(Oc3ccc(C(C)(C)c4cccc(C(C)(C)c5ccc(O)cc5)c4)cc3)c3ccc(C)cc3)cc2)cc1` (stereo not drawn), the ring closure, isolated yield in data set [1] (25-membered ring, 3.0 h) was determined as 74%.

On to `Cc1ccc([S@@](=O)(F)=NC(=O)c2ccc(C(=O)N=[S@@](=O)(Oc3ccc(SSc4ccc([O-])cc4)cc3)c3ccc(C)cc3)cc2)cc1` [(S,S)-3a], for which the ring closure, isolated yield in data set [2] (22-membered ring) was determined as 93%.

Take `Cc1ccc(S(=O)(F)=NC(=O)c2ccc(C(=O)N=S(=O)(Oc3ccc(OCCOc4ccc(O)cc4)cc3)c3ccc(C)cc3)cc2)cc1` (stereo not drawn) [3g]: in data set [1] (24-membered ring, 3.0 h), the ring closure, isolated yield is 79%.

Consider `Cc1ccc([S@@](=O)(F)=NC(=O)c2ccc(C(=O)N=[S@@](=O)(Oc3cccc(Oc4cccc(Oc5cccc([O-])c5)c4)c3)c3ccc(C)cc3)cc2)cc1` [(S,S)-3d], for which the ring closure, isolated yield in data set [2] (23-membered ring) worked out at 71%.

Regarding `Cc1ccc([S@@](=O)(F)=NC(=O)c2ccc(C(=O)N=[S@@](=O)(Oc3ccc(Cc4ccc([O-])cc4)cc3)c3ccc(C)cc3)cc2)cc1` [(S,S)-3u], the ring closure, isolated yield in data set [2] (21-membered ring) was 54%.

Regarding `Cc1ccc(S(=O)(F)=NC(=O)c2ccc(C(=O)N=S(=O)(Oc3ccc(Cc4ccc(O)cc4)cc3)c3ccc(C)cc3)cc2)cc1` (stereo not drawn) [3u (10 mM, 6 h)], the ring closure, isolated yield in data set [1] (21-membered ring, 6.0 h) turned out to be 94%.

With `Cc1ccc([S@@](=O)(F)=NC(=O)c2ccc(Oc3ccc(C(=O)N=[S@@](=O)(Oc4cccc(Oc5cccc(Oc6cccc([O-])c6)c5)c4)c4ccc(C)cc4)cc3)cc2)cc1` [(S,S)-3k], in data set [2] (28-membered ring), the ring closure, isolated yield is 85%.

Turning to `Cc1ccc([S@@](=O)(F)=NC(=O)c2ccc(Oc3ccc(C(=O)N=[S@@](=O)(Oc4ccc(C(C)(C)c5cccc(C(C)(C)c6ccc([O-])cc6)c5)cc4)c4ccc(C)cc4)cc3)cc2)cc1` [(S,S)-3o (diphenyl ether)], the ring closure, isolated yield in data set [2] (30-membered ring) worked out at 64%.

Regarding `Cc1ccc([S@](=O)(F)=NC(=O)c2ccc(Oc3ccc(C(=O)N=[S@](=O)(Oc4ccc(C(c5ccc([O-])cc5)(C(F)(F)F)C(F)(F)F)cc4)c4ccc(C)cc4)cc3)cc2)cc1` [(R,R)-3Ad], in data set [2] (26-membered ring), the ring closure, isolated yield is 12%.

On to `Cc1ccc([S@@](=O)(F)=NC(=O)c2ccc(Oc3ccc(C(=O)N=[S@@](=O)(Oc4ccc(Cc5ccc([O-])cc5)cc4)c4ccc(C)cc4)cc3)cc2)cc1` [(S,S)-3Aa], for which the ring closure, isolated yield in data set [2] (26-membered ring) stood at 12%.

Turning to `Cc1ccc([S@@](=O)(F)=NC(=O)c2ccc(-c3ccc(C(=O)N=[S@@](=O)(Oc4ccc(Cc5ccc([O-])cc5)cc4)c4ccc(C)cc4)cc3)cc2)cc1` [[1+1] of 4f (not observed)], the ring closure, isolated yield in data set [2] (25-membered ring) turned out to be 0%.

In the case of `Cc1ccc([S@@](=O)(F)=NC(=O)c2ccc(C(=O)N=[S@@](=O)(Oc3ccccc3CNCCNCc3ccccc3[O-])c3ccc(C)cc3)cc2)cc1` [(S,S)-3f], in data set [2] (22-membered ring), the ring closure, isolated yield came to 75%.

With `Cc1ccc([S@](=O)(F)=NC(=O)c2ccc(Oc3ccc(C(=O)N=[S@](=O)(Oc4ccc(C(C)(C)c5ccc([O-])cc5)cc4)c4ccc(C)cc4)cc3)cc2)cc1` [(R,R)-3Ac], in data set [2] (26-membered ring), the ring closure, isolated yield stood at 14%.

For the compound `Cc1ccc([S@@](=O)(F)=NC(=O)c2ccc(Oc3ccc(C(=O)N=[S@@](=O)(Oc4ccc(C(C)(C)c5ccc([O-])cc5)cc4)c4ccc(C)cc4)cc3)cc2)cc1` [(S,S)-3Ac], in data set [2] (26-membered ring), the ring closure, isolated yield turned out to be 16%.

With `Cc1ccc([S@](=O)(F)=NC(=O)c2ccc(C(=O)N=[S@](=O)(Oc3ccc(C(C)(C)c4cccc(C(C)(C)c5ccc([O-])cc5)c4)cc3)c3ccc(C)cc3)cc2)cc1` [(R,R)-3c], the ring closure, isolated yield in data set [2] (25-membered ring) is 35%.

For `Cc1ccc([S@@](=O)(F)=NC(=O)c2ccc(-c3ccc(C(=O)N=[S@@](=O)(Oc4ccc(Oc5ccc([O-])cc5)cc4)c4ccc(C)cc4)cc3)cc2)cc1` [[1+1] of 4g (not observed)], the ring closure, isolated yield in data set [2] (25-membered ring) stood at 0%.

Regarding `Cc1ccc([S@@](=O)(F)=NC(=O)c2ccc(C(=O)N=[S@@](=O)(Oc3ccc(C(c4ccc([O-])cc4)(C(F)(F)F)C(F)(F)F)cc3)c3ccc(C)cc3)cc2)cc1` [(S,S)-3x], the ring closure, isolated yield in data set [2] (21-membered ring) is 33%.

For the compound `Cc1ccc([S@](=O)(F)=NC(=O)c2ccc(Oc3ccc(C(=O)N=[S@](=O)(Oc4ccc(C(C)(C)c5cccc(C(C)(C)c6ccc([O-])cc6)c5)cc4)c4ccc(C)cc4)cc3)cc2)cc1` [(R,R)-3o (diphenyl ether)], the ring closure, isolated yield in data set [2] (30-membered ring) was determined as 65%.

`Cc1ccc([S@](=O)(F)=NC(=O)c2ccc(Oc3ccc(C(=O)N=[S@](=O)(Oc4ccc(Cc5ccc([O-])cc5)cc4)c4ccc(C)cc4)cc3)cc2)cc1` [(R,R)-3Aa]: the ring closure, isolated yield in data set [2] (26-membered ring) was determined as 12%.

`Cc1ccc([S@](=O)(F)=NC(=O)c2ccc(C(=O)N=[S@](=O)(Oc3ccc(C(c4ccc([O-])cc4)(C(F)(F)F)C(F)(F)F)cc3)c3ccc(C)cc3)cc2)cc1` [(R,R)-3x]: in data set [2] (21-membered ring), the ring closure, isolated yield was found to be 35%.

Regarding `Cc1ccc([S@](=O)(F)=NC(=O)c2ccc(Oc3ccc(C(=O)N=[S@](=O)(Oc4ccc(Oc5ccc([O-])cc5)cc4)c4ccc(C)cc4)cc3)cc2)cc1` [(R,R)-3Ab], the ring closure, isolated yield in data set [2] (26-membered ring) came out at 10%.

On to `Cc1ccc([S@](=O)(F)=NC(=O)c2ccc(C(=O)N=[S@](=O)(Oc3ccc(Oc4ccc([O-])cc4)cc3)c3ccc(C)cc3)cc2)cc1` [(R,R)-3v], for which the ring closure, isolated yield in data set [2] (21-membered ring) is 26%.

In the case of `Cc1ccc([S@@](=O)(F)=NC(=O)c2cccc(C(=O)N=[S@@](=O)(Oc3ccc(SSc4ccc([O-])cc4)cc3)c3ccc(C)cc3)n2)cc1` [(S,S)-3r], in data set [2] (21-membered ring), the ring closure, isolated yield was 71%.

Regarding `Cc1ccc([S@@](=O)(F)=NC(=O)c2ccc(C(=O)N=[S@@](=O)(Oc3ccc(C(C)(C)c4cccc(C(C)(C)c5ccc([O-])cc5)c4)cc3)c3ccc(C)cc3)cc2)cc1` [(S,S)-3c], the ring closure, isolated yield in data set [2] (25-membered ring) turned out to be 42%.

As to `Cc1ccc([S@@](=O)(F)=NC(=O)c2ccc(C(=O)N=[S@@](=O)(Oc3ccc(Oc4ccc([O-])cc4)cc3)c3ccc(C)cc3)cc2)cc1` [(S,S)-3v], the ring closure, isolated yield in data set [2] (21-membered ring) was 34%.

With `Cc1ccc([S@@](=O)(F)=NC(=O)c2ccc(C(=O)N=[S@@](=O)(Oc3ccc(C(C)(C)c4ccc([O-])cc4)cc3)c3ccc(C)cc3)cc2)cc1` [(S,S)-3w], the ring closure, isolated yield in data set [2] (21-membered ring) was 62%.
